In patent publication US20100166854A1, “ELECTROSPUN MATRICES FOR DELIVERY OF HYDROPHILIC AND LIPOPHILIC COMPOUNDS” (priority 2006, published 2010):
Structures can show the parent of a compound that is named as a salt.

Columns and labels:
[1] = Drug release from electrospun PLGA or PLLA fibers in Franz diffusion cells (Example 2); type: physicochemical; settings: PBS 37° C.
Protocol: Poly(lactide-co-glycolide) (50:50) (PLGA) or poly(L-lactide) (PLLA) was dissolved in hexafluoroisopropanol (HFIP) and gently shaken for 3 hours till the polymer was completely dissolved. To this a solution of LH or mupirocin in HFIP was slowly added without any visible precipitation and shaken. The homogeneous drug/polymer solution was then electrospun as per the following parameters on a rotating mandrel. Differential Scanning Calorimetry (DSC) was conducted on the fibers to study drug inclusion. The dried scaffolds were sectioned into uniform weight discs and placed into Franz diffusion cells (Permegear Inc., Bethlehem, Pa.) with phosphate buffered saline at 37° C. rotated at 600 rpm. Samples were withdrawn at specific times and analyzed by HPLC. An equivalent amount of fresh PBS was replaced each time.

[2] = tested on: mupirocin-sensitive bacteria; settings: all the strains of mupirocin-sensitive bacteria; cited from earlier work
[3] = tested on: Staphylococcus aureus ATCC 25923; settings: 5 μg mupirocin disc, interpretative criteria; cited from earlier work

Compound | LH released ([1]; within 48 hrs, PLGA 20% fibers, LH 100% w/v of polymer) [%] | LH burst release ([1]; within the first hour, PLGA 20% fibers, LH 100% w/v of polymer) [%] | MIC [2] [µg/mL] | mupirocin cumulative release ([1]; in the next 72 hours, PLLA 15% fibers, mupirocin 25% w/v of polymer) [wt %] | mupirocin initial burst release ([1]; within an hour, PLLA 15% fibers, mupirocin 25% w/v of polymer) [wt %] | zone diameter considered acceptable [3] [mm]
CCN(CC)CC(=O)Nc1c(C)cccc1C [LH, Lidocaine hydrochloride] | 92 | 80 | – | – | – | –
C/C(=C\C(=O)OCCCCCCCCC(=O)O)C[C@@H]1OC[C@H](C[C@@H]2O[C@H]2[C@@H](C)[C@H](C)O)[C@@H](O)[C@H]1O [mupirocin] | – | – | 0.06 to 0.5 | 70 | 36 | 22 to 27
